US20120172386A1, “Combinations Comprising a VEGF Receptor Inhibitor” (NOVARTIS AG, priority 2005, published 2012)

Columns and labels:
[1] = molecular target: VEGF-R2 (KDR) (Homo sapiens, UniProt P35968); experiment: Inhibition of the tyrosine kinase activity of VEGF-R2 (KDR); format: biochemical
Protocol: Inhibition of the Tyrosine Kinase Activity of VEGF-R2 (KDR)
The inhibition test is carried out as described above.

[2] = Percutaneous penetration/permeation in static Franz-type diffusion cells with split-thickness human cadaver skin; format: in vitro ADME
Protocol: Frozen human dorsal cadaver skin (Caucasian; back skin) was obtained from the National Disease Research Interchange, Philadelphia, USA. Skin from three different donors was used;
Thawed skin samples were dermatomed to 0.7 mm with an Aesculap dermatome to obtain “split-thickness” skin.
Percutaneous penetration was studied in vitro by means of static Franz-type diffusion cells with phosphate buffered saline/fetal calf serum 2:1 as receptor fluid at 32° in triplicates for 48 hours. The compounds were applied as 1% solutions (300 μl each) in propylene glycol (solution a) or in propylene glycol/oleyl alcohol 9:1 (solution b). Samples of 100 μl were taken 5 to 7 times and replaced by fresh receptor fluid as described previously (Schmook, et al., Skin Pharmacol. 1993, 6:116-124).
Drug analysis was performed with specimens of the exposed skin (at the end of the 48 hours experiment), from which the stratum corneum had been removed by 20 strippings with an adhesive tape. The weighed skin samples were homogenized in 0.2 M ammonium phosphate buffer (pH 7.0). The homogenates were extracted with ethyl acetate and processed as described (Schmook, et al 1993).

[3] = as above; format: in vitro ADME; conditions: batch of skin 4
[4] = solution b (1% in propylene glycol/oleyl alcohol 9:1), batch of skin 3
[5] = solution b (1% in propylene glycol/oleyl alcohol 9:1), batch of skin 3, 48 hours, stratum corneum removed
[6] = solution b (1% in propylene glycol/oleyl alcohol 9:1), batch of skin 2
[7] = solution b (1% in propylene glycol/oleyl alcohol 9:1), batch of skin 2, 48 hours, stratum corneum removed
[8] = solution b (1% in propylene glycol/oleyl alcohol 9:1), batch of skin 1
[9] = solution b (1% in propylene glycol/oleyl alcohol 9:1), batch of skin 1, 48 hours, stratum corneum removed
[10] = solution c (propylene glycol containing 0.1% DMSO)
[11] = solution d (propylene glycol containing 1% DMSO)
[12] = solution a (propylene glycol), batch of skin 4

Sequence of VEGF-R2 (KDR) (P35968 20-1356, species assumed): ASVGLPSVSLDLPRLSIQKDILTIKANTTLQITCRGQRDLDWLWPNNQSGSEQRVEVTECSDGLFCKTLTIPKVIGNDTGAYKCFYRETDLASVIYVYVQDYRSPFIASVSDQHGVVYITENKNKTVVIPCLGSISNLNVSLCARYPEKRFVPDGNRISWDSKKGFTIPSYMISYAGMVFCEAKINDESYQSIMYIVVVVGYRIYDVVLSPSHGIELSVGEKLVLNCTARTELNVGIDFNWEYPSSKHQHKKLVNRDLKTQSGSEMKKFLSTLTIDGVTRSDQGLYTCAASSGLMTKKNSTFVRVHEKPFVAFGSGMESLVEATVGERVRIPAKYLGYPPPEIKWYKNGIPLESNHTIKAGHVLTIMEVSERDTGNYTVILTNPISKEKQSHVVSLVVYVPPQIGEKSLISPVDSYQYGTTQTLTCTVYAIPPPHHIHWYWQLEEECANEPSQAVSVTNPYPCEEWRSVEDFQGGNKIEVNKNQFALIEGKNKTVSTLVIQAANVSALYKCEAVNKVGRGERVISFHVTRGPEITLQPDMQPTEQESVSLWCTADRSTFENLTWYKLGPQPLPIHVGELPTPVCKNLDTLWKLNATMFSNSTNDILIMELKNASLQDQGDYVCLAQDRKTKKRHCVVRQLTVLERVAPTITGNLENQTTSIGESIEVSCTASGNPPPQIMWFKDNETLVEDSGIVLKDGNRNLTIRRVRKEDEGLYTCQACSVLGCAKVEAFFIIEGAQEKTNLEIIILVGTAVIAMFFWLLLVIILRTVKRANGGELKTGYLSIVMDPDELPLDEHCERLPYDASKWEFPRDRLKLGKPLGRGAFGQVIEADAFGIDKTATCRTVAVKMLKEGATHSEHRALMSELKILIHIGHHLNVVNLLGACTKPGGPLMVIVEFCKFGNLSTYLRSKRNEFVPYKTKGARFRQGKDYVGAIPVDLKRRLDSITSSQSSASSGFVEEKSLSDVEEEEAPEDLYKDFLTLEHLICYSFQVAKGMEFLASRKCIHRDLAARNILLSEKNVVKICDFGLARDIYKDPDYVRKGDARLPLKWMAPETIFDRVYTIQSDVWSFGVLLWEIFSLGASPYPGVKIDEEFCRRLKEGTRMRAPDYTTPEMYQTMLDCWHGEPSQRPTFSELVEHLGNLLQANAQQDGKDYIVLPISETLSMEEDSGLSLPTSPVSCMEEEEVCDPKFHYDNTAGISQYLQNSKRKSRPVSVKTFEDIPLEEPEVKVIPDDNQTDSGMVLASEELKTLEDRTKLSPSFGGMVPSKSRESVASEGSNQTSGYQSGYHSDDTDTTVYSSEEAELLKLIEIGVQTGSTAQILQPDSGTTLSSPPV

IC50 [1] | melting point | SMILES | further results
10 nM |  | Nc1nccc(Oc2ccc3c(c2)OCCN3C(=O)Nc2ccc(Cl)c(C(F)(F)F)c2)n1 [12b)] | 
46 nM | 180 to 182 °C | CNc1cc(Oc2ccc3c(c2)OCCN3C(=O)Nc2ccc(C)c(C(F)(F)F)c2)ncn1 [Example 8, 7-(6-Methylamino-pyrimidin-4-yloxy)-2,3-dihydro-benzo[1,4]oxazine-4-carboxylic acid (4-methyl-3-trifluoromethyl-phenyl)-amide] | 
52 nM |  | Nc1nccc(Oc2ccc3c(c2)OCCN3C(=O)Nc2ccc(C(F)(F)F)c(C(F)(F)F)c2)n1 [12a)] | 
 |  | Nc1cc(Oc2ccc3c(C(=O)Nc4ccc(F)c(C(F)(F)F)c4)cccc3c2)ncn1 [drawing 78] | Permeation rate [2, 4]: 22 ± 3 ng/mL/h; Skin concentration [2, 5]: 19 ± 7 µg/g
 |  | Nc1nccc(Oc2ccc3c(C(=O)Nc4cccc(C(F)(F)F)c4)cccc3c2)n1 [drawing 76] | Permeation rate [2, 6]: 13 ± 3 ng/mL/h; Skin concentration [2, 7]: 44 ± 17 µg/g; Permeation rate [2, 4]: 8 ± 2 ng/mL/h; Skin concentration [2, 5]: 24 ± 6 µg/g
19 nM |  | Nc1nccc(Oc2ccc3c(C(=O)Nc4ccc(C(F)(F)F)cc4)cccc3c2)n1 [17a)] | 
17 nM |  | Cc1ccc(NC(=O)N2CCOc3cc(Oc4ccnc(N)n4)ccc32)cc1C(F)(F)F [12f), 7-(2-amino-pyrimidin-4-yloxy)-2,3-dihydro-benzo[1,4]oxazine-4-carboxylic acid (4-methyl-3-trifluoromethyl-phenyl)-amide] | 
96 nM |  | CN1CCN(Cc2ccc(NC(=O)N3CCOc4cc(Oc5ccnc(N)n5)ccc43)cc2C(F)(F)F)CC1 [Example 22, 7-(2-Amino-pyrimidin-4-yloxy)-2,3-dihydro-benzo[1,4]oxazine-4-carboxylic acid [4-(4-methyl-piperazin-1-ylmethyl)-3-trifluoromethyl-phenyl]-amide] | 
 |  | Clc1ccc(Nc2nnc(Cc3ccncc3)c3ccccc23)cc1 | Permeation rate [2, 8]: 286 ± 90 ng/mL/h; Skin concentration [2, 9]: 10.4 ± 2.0 µg/g
21 nM | 216 to 217 °C | CC(=O)Nc1nccc(Oc2ccc3c(C(=O)Nc4cccc(C(F)(F)F)c4)cccc3c2)n1 [Example 18, 6-(2-Acetylamino-pyrimidin-4-yloxy)-naphthalene-1-carboxylic acid (3-trifluoromethyl-phenyl)-amide] | 
 | 222 to 224 °C | Nc1cc(Oc2ccc3c(C(=O)Nc4cccc(C(F)(F)F)c4)cccc3c2)ccn1 [Example 68, 6-(2-Amino-pyridin-4-yloxy)-naphthalene-1-carboxylic acid (3-trifluoromethyl-phenyl)-amide] | 
 | 205 °C | Nc1cc(Sc2ccc3c(C(=O)Nc4cccc(C(F)(F)F)c4)cccc3c2)ncn1 [Example 58, 6-(6-Amino-pyrimidin-4-ylsulfanyl)-naphthalene-1-carboxylic acid (3-trifluoromethyl-phenyl)-amide] | 
 | 217 to 220 °C | Nc1cc(C#Cc2ccc3c(C(=O)Nc4cccc(C(F)(F)F)c4)cccc3c2)ncn1 [Example 71, 6-(6-Amino-pyrimidin-4-ylethynyl)-naphthalene-1-carboxylic acid (3-trifluoromethyl-phenyl)-amide] | 
 | 234 to 236 °C | Nc1nc(Cl)cc(Oc2ccc3c(C(=O)Nc4cccc(C(F)(F)F)c4)cccc3c2)n1 [Example 13, 6-(2-Amino-6-chloro-pyrimidin-4-yloxy)-naphthalene-1-carboxylic acid (3-trifluoromethyl-phenyl)-amide] | 
 | 180 to 181 °C | CN(C)Cc1cc(Oc2ccc3c(C(=O)Nc4cccc(C(F)(F)F)c4)cccc3c2)ncn1 [Example 55, 6-(6-Dimethylaminomethyl-pyrimidin-4-yloxy)-naphthalene-1-carboxylic acid (3-trifluoromethyl-phenyl)-amide] | 
24 nM |  | CC(=O)Nc1nccc(Oc2ccc3c(c2)OCCN3C(=O)Nc2ccc(C)c(C(F)(F)F)c2)n1 [Example 20, 7-(2-Acetylamino-pyrimidin-4-yloxy)-2,3-dihydro-benzo[1,4]oxazine-4-carboxylic acid (4-methyl-3-trifluoromethyl-phenyl)-amide] | 

IC50 [1] | melting point | SMILES | further results
 | 124 to 126 °C | CC(C)(C)c1cc(NC(=O)c2cncc3cc(Oc4cc(N)ncn4)ccc23)n(-c2ccc(F)cc2)n1 [Example 94, 7-(6-Amino-pyrimidin-4-yloxy)-isoquinoline-4-carboxylic acid [5-tert-butyl-2-(4-fluoro-phenyl)-2H-pyrazol-3-yl]-amide] | 
73 nM |  | Nc1nccc(Oc2ccc3c(c2)OCCN3C(=O)Nc2ccc(F)c(C(F)(F)F)c2)n1 [12d)] | 
 | 80 to 82 °C | CN(C)CCNC(=O)c1cc(Oc2ccc3c(C(=O)Nc4cccc(C(F)(F)F)c4)cccc3c2)ccn1 [Example 67, 4-[5-(3-Trifluoromethyl-phenylcarbamoyl)-naphthalen-2-yloxy]-pyridine-2-carboxylic acid (2-dimethylamino-ethyl)-amide] | 
29 nM | 180 °C | CNc1cc(Oc2ccc3c(c2)OCCN3C(=O)Nc2cccc(C(F)(F)F)c2)ncn1 [Example 9, 7-(6-Methylamino-pyrimidin-4-yloxy)-2,3-dihydro-benzo[1,4]oxazine-4-carboxylic acid (3-trifluoromethyl-phenyl)-amide] | 
37 nM | 161 to 163 °C | Nc1nccc(Oc2ccc3c(c2)OCCN3C(=O)Nc2cccc(C(F)(F)F)c2)n1 [Example 10, 7-(2-Amino-pyrimidin-4-yloxy)-2,3-dihydro-benzo[1,4]oxazine-4-carboxylic acid (3-trifluoromethyl-phenyl)-amide] | 
 |  | Nc1nccc(Oc2ccc3c(C(=O)Nc4cccc(C(F)(F)F)c4)cccc3c2)n1 [formula Ip] | Permeation rate [3, 10]: <2 ng/mL/h; Skin concentration [3, 10]: 4.4 ± 3.1 µg/g; Permeation rate [3, 11]: <2 ng/mL/h; Skin concentration [3, 11]: 4.7 ± 2.9 µg/g; Permeation rate [2, 12]: <2 ng/mL/h; Skin concentration [2, 12]: 6.2 ± 1.5 µg/g
19 nM |  | COC(=O)Nc1nccc(Oc2ccc3c(c2)OCCN3C(=O)Nc2ccc(C)c(C(F)(F)F)c2)n1 [Example 21, 7-(2-Methoxycarbonylamino-pyrimidin-4-yloxy)-2,3-dihydro-benzo[1,4]oxazine-4-carboxylic acid (4-methyl-3-trifluoromethyl-phenyl)-amide] | 
54 nM |  | CC(C)(C)c1ccc(NC(=O)c2cccc3cc(Oc4ccnc(N)n4)ccc23)cc1 [17b)] | 
 |  | CCN1CCN(Cc2ccc(-c3cc4c(N[C@H](C)c5ccccc5)ncnc4[nH]3)cc2)CC1 | Permeation rate [2, 8]: 182 ± 68 ng/mL/h; Skin concentration [2, 9]: 35 ± 12 µg/g; Permeation rate [2, 6]: 189 ± 43 ng/mL/h; Skin concentration [2, 7]: 72 ± 24 µg/g
 |  | Nc1cc(Oc2ccc3c(C(=O)Nc4cccc(C(F)(F)F)c4)cccc3c2)ncn1 [drawing 77] | Permeation rate [2, 4]: 12 ± 4 ng/mL/h; Skin concentration [2, 5]: 34 ± 3 µg/g
 | 131 to 133 °C | CC(C)c1ccc(-n2nc(C(C)(C)C)cc2NC(=O)c2cncc3cc(Oc4cc(N)ncn4)ccc23)cc1 [Example 93, 7-(6-Amino-pyrimidin-4-yloxy)-isoquinoline-4-carboxylic acid [5-tert-butyl-2-(4-isopropyl-phenyl)-2H-pyrazol-3-yl]-amide] | 
 | 230 to 232 °C | COC(=O)Nc1cc(Oc2ccc3c(C(=O)Nc4cccc(C(F)(F)F)c4)cccc3c2)ccn1 [Example 69, {4-[5-(3-Trifluoromethyl-phenylcarbamoyl)-naphthalen-2-yloxy]-pyridin-2-yl}-carbamic acid methyl ester] | 
 | 117 to 120 °C | NC(=O)c1cc(Oc2ccc3c(C(=O)Nc4cccc(C(F)(F)F)c4)cccc3c2)ccn1 [Example 66, 4-[5-(3-Trifluoromethyl-phenylcarbamoyl)-naphthalen-2-yloxy]-pyridine-2-carboxylic acid amide] | 
20 nM |  | Cc1ccc(NC(=O)c2cccc3cc(Oc4ccnc(N)n4)ccc23)cc1C(F)(F)F [Example 15, 6-(2-Amino-pyrimidin-4-yloxy)-naphthalene-1-carboxylic acid (4-methyl-3-trifluoromethyl-phenyl)-amide] | 
 | 225 to 227 °C | Nc1nccc(CCc2ccc3c(C(=O)Nc4cccc(C(F)(F)F)c4)cccc3c2)n1 [Example 70, 6-[2-(2-Amino-pyrimidin-4-yl)-ethyl]-naphthalene-1-carboxylic acid (3-trifluoromethyl-phenyl)-amide] | 
 |  | Nc1nccc(Oc2ccc3c(C(=O)Nc4ccc(F)c(C(F)(F)F)c4)cccc3c2)n1 | Permeation rate [2, 4]: 19 ± 3 ng/mL/h; Skin concentration [2, 5]: 46 ± 13 µg/g
